Assay results published in ChEMBL document CHEMBL1148993, “UV-mediated genotoxicity of furanoquinoline and of certain tryptophan-derived alkaloids” (J Nat Prod, 1983).

Columns and labels:
[1] = test system: Escherichia coli; test: Phototoxicity against Escherichia coli at 100 ug/disk after irradiation with W/m'2 UV light; format: functional; settings: light or radiation study, read-out: IZ
[2] = test system: Escherichia coli; test: Phototoxicity against Escherichia coli at 100 ug/disk in dark; format: functional; settings: light or radiation study, read-out: IZ
[3] = test system: Pseudomonas aeruginosa; test: Phototoxicity against Pseudomonas aeruginosa at 100 ug/disk after irradiation with W/m'2 UV light; format: functional; settings: light or radiation study, read-out: IZ
[4] = test system: Pseudomonas aeruginosa; test: Phototoxicity against Pseudomonas aeruginosa at 100 ug/disk in dark; format: functional; settings: light or radiation study, read-out: IZ
[5] = test system: Pseudomonas fluorescens; test: Phototoxicity against Pseudomonas fluorescens at 100 ug/disk after irradiation with W/m'2 UV light; format: functional; settings: light or radiation study, read-out: IZ
[6] = test system: Pseudomonas fluorescens; test: Phototoxicity against Pseudomonas fluorescens at 100 ug/disk in dark; format: functional; settings: light or radiation study, read-out: IZ
[7] = test system: Bacillus subtilis; test: Phototoxicity against Bacillus subtilis at 100 ug/disk after irradiation with W/m'2 UV light; format: functional; settings: light or radiation study, read-out: IZ
[8] = test system: Bacillus subtilis; test: Phototoxicity against Bacillus subtilis at 100 ug/disk in dark; format: functional; settings: light or radiation study, read-out: IZ
[9] = test system: Enterococcus faecalis; test: Phototoxicity against Streptococcus faecalis at 100 ug/disk after irradiation with W/m'2 UV light; format: functional; settings: light or radiation study, read-out: IZ
[10] = test system: Enterococcus faecalis; test: Phototoxicity against Streptococcus faecalis at 100 ug/disk in dark; format: functional; settings: light or radiation study, read-out: IZ
[11] = test system: Staphylococcus aureus; test: Phototoxicity against Staphylococcus aureus at 100 ug/disk after irradiation with W/m'2 UV light; format: functional; settings: light or radiation study, read-out: IZ
[12] = test system: Staphylococcus aureus; test: Phototoxicity against Staphylococcus aureus at 100 ug/disk in dark; format: functional; settings: light or radiation study, read-out: IZ
[13] = test system: Candida albicans; test: Phototoxicity against Candida albicans at 100 ug/disk after irradiation with W/m'2 UV light; format: functional; settings: light or radiation study, read-out: IZ
[14] = test system: Candida albicans; test: Phototoxicity against Candida albicans at 100 ug/disk in dark; format: functional; settings: light or radiation study, read-out: IZ
[15] = test system: Saccharomyces cerevisiae; test: Phototoxicity against Saccharomyces cerevisiae at 100 ug/disk after irradiation with W/m'2 UV light; format: functional; settings: light or radiation study, read-out: IZ
[16] = test system: Saccharomyces cerevisiae; test: Phototoxicity against Saccharomyces cerevisiae at 100 ug/disk in dark; format: functional; settings: light or radiation study, read-out: IZ
[17] = test system: CHO; test: Genotoxicity in CHO cells assessed as chromosomal aberrations at 12.5 ppm after 60 mins in dark followed by 5 W/m'2 UV irradiation for 30 mins; format: toxicity, cell-based, Cricetulus griseus; settings: chinese hamster, 0.5 h
[18] = test system: CHO; test: Genotoxicity in CHO cells assessed as chromosomal aberrations at 12.5 ppm after 90 mins in dark; format: toxicity, cell-based, Cricetulus griseus; settings: chinese hamster, 1.5 h
[19] = test system: CHO; test: Genotoxicity in CHO cells assessed as mitotic inhibition at 3.12 ppm after 60 mins in dark followed by 5 W/m'2 UV irradiation for 30 mins; format: toxicity, cell-based, Cricetulus griseus; settings: chinese hamster, 0.5 h
[20] = test system: CHO; test: Genotoxicity in CHO cells assessed as chromosomal aberrations at 1.56 ppm after 60 mins in dark followed by 5 W/m'2 UV irradiation for 30 mins; format: toxicity, cell-based, Cricetulus griseus; settings: chinese hamster, 0.5 h
[21] = test system: CHO; test: Genotoxicity in CHO cells assessed as chromosomal aberrations at 0.78 ppm after 60 mins in dark followed by 5 W/m'2 UV irradiation for 30 mins; format: toxicity, cell-based, Cricetulus griseus; settings: chinese hamster, 0.5 h
[22] = test system: CHO; test: Genotoxicity in CHO cells assessed as chromosomal aberrations at 0.39 ppm after 60 mins in dark followed by 5 W/m'2 UV irradiation for 30 mins; format: toxicity, cell-based, Cricetulus griseus; settings: chinese hamster, 0.5 h
[23] = test system: CHO; test: Genotoxicity in CHO cells assessed as chromosomal aberrations at 0.19 ppm after 60 mins in dark followed by 5 W/m'2 UV irradiation for 30 mins; format: toxicity, cell-based, Cricetulus griseus; settings: chinese hamster, 0.5 h
[24] = test system: CHO; test: Genotoxicity in CHO cells assessed as chromosomal aberrations at 6.25 ppm after 60 mins in dark followed by 5 W/m'2 UV irradiation for 30 mins; format: toxicity, cell-based, Cricetulus griseus; settings: chinese hamster, 0.5 h
[25] = test system: Escherichia coli; test: Phototoxicity against Escherichia coli at 16.7 ug/disk after irradiation with W/m'2 UV light; format: functional; settings: light or radiation study, read-out: IZ
[26] = test system: Escherichia coli; test: Phototoxicity against Escherichia coli at 16.7 ug/disk in dark; format: functional; settings: light or radiation study, read-out: IZ
[27] = test system: Pseudomonas aeruginosa; test: Phototoxicity against Pseudomonas aeruginosa at 16.7 ug/disk after irradiation with W/m'2 UV light; format: functional; settings: light or radiation study, read-out: IZ
[28] = test system: Pseudomonas aeruginosa; test: Phototoxicity against Pseudomonas aeruginosa at 16.7 ug/disk in dark; format: functional; settings: light or radiation study, read-out: IZ
[29] = test system: Pseudomonas fluorescens; test: Phototoxicity against Pseudomonas fluorescens at 16.7 ug/disk after irradiation with W/m'2 UV light; format: functional; settings: light or radiation study, read-out: IZ
[30] = test system: Pseudomonas fluorescens; test: Phototoxicity against Pseudomonas fluorescens at 16.7 ug/disk in dark; format: functional; settings: light or radiation study, read-out: IZ
[31] = test system: Bacillus subtilis; test: Phototoxicity against Bacillus subtilis at 16.7 ug/disk after irradiation with W/m'2 UV light; format: functional; settings: light or radiation study, read-out: IZ
[32] = test system: Bacillus subtilis; test: Phototoxicity against Bacillus subtilis at 16.7 ug/disk in dark; format: functional; settings: light or radiation study, read-out: IZ
[33] = test system: Enterococcus faecalis; test: Phototoxicity against Streptococcus faecalis at 16.7 ug/disk after irradiation with W/m'2 UV light; format: functional; settings: light or radiation study, read-out: IZ
[34] = test system: Enterococcus faecalis; test: Phototoxicity against Streptococcus faecalis at 16.7 ug/disk in dark; format: functional; settings: light or radiation study, read-out: IZ
[35] = test system: Staphylococcus aureus; test: Phototoxicity against Staphylococcus aureus at 16.7 ug/disk after irradiation with W/m'2 UV light; format: functional; settings: light or radiation study, read-out: IZ
[36] = test system: Staphylococcus aureus; test: Phototoxicity against Staphylococcus aureus at 16.7 ug/disk in dark; format: functional; settings: light or radiation study, read-out: IZ
[37] = test system: Candida albicans; test: Phototoxicity against Candida albicans at 16.7 ug/disk after irradiation with W/m'2 UV light; format: functional; settings: light or radiation study, read-out: IZ
[38] = test system: Candida albicans; test: Phototoxicity against Candida albicans at 16.7 ug/disk in dark; format: functional; settings: light or radiation study, read-out: IZ
[39] = test system: Saccharomyces cerevisiae; test: Phototoxicity against Saccharomyces cerevisiae at 16.7 ug/disk after irradiation with W/m'2 UV light; format: functional; settings: light or radiation study, read-out: IZ
[40] = test system: Saccharomyces cerevisiae; test: Phototoxicity against Saccharomyces cerevisiae at 16.7 ug/disk in dark; format: functional; settings: light or radiation study, read-out: IZ
[41] = test system: CHO; test: Genotoxicity in CHO cells assessed as chromosomal aberrations at 83.5 ppm after 60 mins in dark followed by 5 W/m'2 UV irradiation for 30 mins; format: toxicity, cell-based, Cricetulus griseus; settings: chinese hamster, 0.5 h
[42] = test system: CHO; test: Genotoxicity in CHO cells assessed as chromosomal aberrations at 83.5 ppm after 90 mins in dark; format: toxicity, cell-based, Cricetulus griseus; settings: chinese hamster, 1.5 h
[43] = test system: CHO; test: Genotoxicity in CHO cells assessed as chromosomal aberrations at 41.7 ppm after 60 mins in dark followed by 5 W/m'2 UV irradiation for 30 mins; format: toxicity, cell-based, Cricetulus griseus; settings: chinese hamster, 0.5 h
[44] = test system: CHO; test: Genotoxicity in CHO cells assessed as chromosomal aberrations at 20.8 ppm after 60 mins in dark followed by 5 W/m'2 UV irradiation for 30 mins; format: toxicity, cell-based, Cricetulus griseus; settings: chinese hamster, 0.5 h
[45] = test system: CHO; test: Genotoxicity in CHO cells assessed as chromosomal aberrations at 10.4 ppm after 60 mins in dark followed by 5 W/m'2 UV irradiation for 30 mins; format: toxicity, cell-based, Cricetulus griseus; settings: chinese hamster, 0.5 h
[46] = test system: CHO; test: Genotoxicity in CHO cells assessed as chromosomal aberrations at 5.2 ppm after 60 mins in dark followed by 5 W/m'2 UV irradiation for 30 mins; format: toxicity, cell-based, Cricetulus griseus; settings: chinese hamster, 0.5 h
[47] = test system: CHO; test: Genotoxicity in CHO cells assessed as mitotic inhibition at 2.6 ppm after 60 mins in dark followed by 5 W/m'2 UV irradiation for 30 mins; format: toxicity, cell-based, Cricetulus griseus; settings: chinese hamster, 0.5 h

`Cc1ncc(C2CCCN2C)c2c1[nH]c1ccccc12` (configuration not stated) [BREVIOCOLLINE] was tested, and the zone of inhibition at 100 µg/disc [1] was 15.5 mm, the zone of inhibition at 100 µg/disc [2] was 0 mm and the zone of inhibition at 100 µg/disc [3] was 13 mm. It also gave a zone of inhibition at 100 µg/disc [4] of 0 mm, a zone of inhibition at 100 µg/disc [5] of 7 mm and a zone of inhibition at 100 µg/disc [6] of 0 mm. For the same compound, the zone of inhibition at 100 µg/disc [7] was 12.5 mm, the zone of inhibition at 100 µg/disc [8] was 0 mm and the zone of inhibition at 100 µg/disc [9] was 14 mm. The zone of inhibition at 100 µg/disc [10] was 0 mm, the zone of inhibition at 100 µg/disc [11] was 15.3 mm and the zone of inhibition at 100 µg/disc [12] was 0 mm. The zone of inhibition at 100 µg/disc [13] was 9.5 mm, the zone of inhibition at 100 µg/disc [14] was 0 mm and the zone of inhibition at 100 µg/disc [15] was 7 mm. The zone of inhibition at 100 µg/disc [16] was 0 mm, the Activity [17] was “Toxic” and the Activity [18] was 0%. For the same compound, the Activity [19] was “Active”, the Activity [20] was 56% and the Activity [21] was 37.1%. The Activity [22] was 5.5%, the Activity [23] was 0% and the Activity [24] was “Toxic”.
In the case of `COc1cc2nccc3c4ccccc4n(c1=O)c23` [5-METHOXYCANTHINONE], the zone of inhibition at 16.7 µg/disc [25] is reported as 7 mm, the zone of inhibition at 16.7 µg/disc [26] is reported as 0 mm and the zone of inhibition at 16.7 µg/disc [27] is reported as 0 mm. The zone of inhibition at 16.7 µg/disc [28] was 0 mm, the zone of inhibition at 16.7 µg/disc [29] was 0 mm and the zone of inhibition at 16.7 µg/disc [30] was 0 mm. For the same compound, the zone of inhibition at 16.7 µg/disc [31] was 8 mm, the zone of inhibition at 16.7 µg/disc [32] was 8 mm and the zone of inhibition at 16.7 µg/disc [33] was 0 mm. For the same compound, the zone of inhibition at 16.7 µg/disc [34] was 0 mm, the zone of inhibition at 16.7 µg/disc [35] was 8 mm and the zone of inhibition at 16.7 µg/disc [36] was 0 mm. The zone of inhibition at 16.7 µg/disc [37] was 12 mm, the zone of inhibition at 16.7 µg/disc [38] was 0 mm and the zone of inhibition at 16.7 µg/disc [39] was 6 mm. The zone of inhibition at 16.7 µg/disc [40] was 0 mm, the Activity [41] was “Toxic” and the Activity [42] was 0%. For the same compound, the Activity [43] was “Toxic”, the Activity [44] was “Toxic” and the Activity [45] was “Toxic”. For the same compound, the Activity [46] was “Toxic” and the Activity [47] was “Active”.
